Where two headings read alike, the source gives them in different places. Where a SMILES comes first, the peptide text is derived from it. Bridges are numbered along the chain shown (N, C = ends). [ ]: non-standard residue; d: D form. The star is where a group is joined. Octatrienoyl(2E,4E,6E) = C/C=C/C=C/C=C/C(=O)*; NMeA = CN[C@@H](C)C(=O)O
Assays:
[1] = tested on: P. falciparum 3D7 parasites; test: P. falciparum growth inhibition assay, 1-cycle (72 h treatment), SYBR DNA staining (library screen at 2 μg/mL and dose-response); format: cell-based, Plasmodium falciparum; settings: for activity at 2 µg/mL: Plasmodium falciparum
[2] = tested on: P. falciparum 3D7 parasites; test: P. falciparum growth inhibition assay, 2-cycle (120 h treatment), delayed-death screen and dose-response; format: cell-based, Plasmodium falciparum; settings: for activity at 2 µg/mL: Plasmodium falciparum
[3] = tested on: T. gondii RH strain (RH-Tub-eYFP) tachyzoites; test: microbe, parasite or virus in culture; format: cell-based, Toxoplasma gondii
[4] = 3D7, 72 h, P. falciparum, 72 h, parasite screen 2 μg/mL, % growth, replicate 1, read-out: Pf_72h_%Growth_Rep1
[5] = 3D7, 72 h, P. falciparum, 72 h, parasite screen 2 μg/mL, % growth, replicate 2, read-out: Pf_72h_%Growth_Rep2
[6] = 3D7, 120 h, P. falciparum, 120 h, parasite screen 2 μg/mL, % growth, replicate 1, read-out: Pf_120h_%Growth_Rep1
[7] = 3D7, 120 h, P. falciparum, 120 h, parasite screen 2 μg/mL, % growth, replicate 2, read-out: Pf_120h_%Growth_Rep2
[8] = Toxoplasma gondii, 72 h, T. gondii, 72 h, parasite screen 2 μg/mL, % growth, replicate 1; read-out: Tg_72h_%Growth_Rep1
[9] = Toxoplasma gondii, 72 h, T. gondii, 72 h, parasite screen 2 μg/mL, % growth, replicate 2; read-out: Tg_72h_%Growth_Rep2
[10] = P. falciparum, 72 h, screen at 2 μg/mL, replicate 1
[11] = P. falciparum, 72 h, screen at 2 μg/mL, replicate 2
[12] = P. falciparum, 120 h, screen at 2 μg/mL, replicate 1
[13] = P. falciparum, 120 h, screen at 2 μg/mL, replicate 2
[14] = T. gondii, 72 h, screen at 2 μg/mL, replicate 1
[15] = T. gondii, 72 h, screen at 2 μg/mL, replicate 2
[16] = library screen at 2 μg/mL, 72 h, % growth, replicate 1
[17] = library screen at 2 μg/mL, 72 h, % growth, replicate 2
[18] = P. falciparum, 72 h, parasite screen 2 μg/mL, % growth, replicate 1
[19] = P. falciparum, 72 h, parasite screen 2 μg/mL, % growth, replicate 2
[20] = P. falciparum, 120 h, parasite screen 2 μg/mL, % growth, replicate 1
[21] = P. falciparum, 120 h, parasite screen 2 μg/mL, % growth, replicate 2
[22] = T. gondii, 72 h, parasite screen 2 μg/mL, % growth, replicate 1
[23] = T. gondii, 72 h, parasite screen 2 μg/mL, % growth, replicate 2

COC(=O)[C@]1(Cc2ccc(O)c(CC=C(C)C)c2)OC(=O)C(O)=C1c1ccc(O)cc1 [Butyrolactone I]
activity at 2 µg/mL ([1]; 3D7, 72 h, P. falciparum, 72 h, screen at 2 μg/mL, replicate 1, read-out: Pf_72h_%Growth_Rep1): 72.4%
activity at 2 µg/mL ([1]; 3D7, 72 h, P. falciparum, 72 h, screen at 2 μg/mL, replicate 2, read-out: Pf_72h_%Growth_Rep2): 88.5%
activity at 2 µg/mL ([2]; 3D7, 120 h, P. falciparum, 120 h, screen at 2 μg/mL, replicate 1, read-out: Pf_120h_%Growth_Rep1): 147%
activity at 2 µg/mL ([2]; 3D7, 120 h, P. falciparum, 120 h, screen at 2 μg/mL, replicate 2, read-out: Pf_120h_%Growth_Rep2): 92.6%
percent parasite growth at 2 µg/mL ([3]; Toxoplasma gondii, 72 h, T. gondii, 72 h, screen at 2 μg/mL, replicate 1; read-out: Tg_72h_%Growth_Rep1): 85.8%
percent parasite growth at 2 µg/mL ([3]; Toxoplasma gondii, 72 h, T. gondii, 72 h, screen at 2 μg/mL, replicate 2; read-out: Tg_72h_%Growth_Rep2): 88.7%

O=C(c1cc(Cl)c(Cl)[nH]1)c1c(O)cccc1O [Pyoluteorin]
activity at 2 µg/mL [1, 4]: 12.8%
activity at 2 µg/mL [1, 5]: 3.08%
activity at 2 µg/mL [2, 6]: 21.2%
activity at 2 µg/mL [2, 7]: 3.32%
percent parasite growth at 2 µg/mL [3, 8]: -1.3%
percent parasite growth at 2 µg/mL [3, 9]: -1.92%

CCCCCCC(=O)CCCCCC/C=C/C[C@@H](O)[C@H](O)[C@@](N)(CO)C(=O)O [BIA-M1219]
Pf_72h_%Growth_Rep1 ([1]; P. falciparum 3D7, 72 h, parasite screen at 2 μg/mL, % growth, replicate 1): 77.20%
Pf_72h_%Growth_Rep2 ([1]; P. falciparum 3D7, 72 h, parasite screen at 2 μg/mL, % growth, replicate 2): 44.93%
Pf_120h_%Growth_Rep1 ([2]; P. falciparum 3D7, 120 h, parasite screen at 2 μg/mL, % growth, replicate 1): 68.80%
Pf_120h_%Growth_Rep2 ([2]; P. falciparum 3D7, 120 h, parasite screen at 2 μg/mL, % growth, replicate 2): 36.84%
Tg_72h_%Growth_Rep1 ([3]; T. gondii, 72 h, parasite screen at 2 μg/mL, % growth, replicate 1): 113.89%
Tg_72h_%Growth_Rep2 ([3]; T. gondii, 72 h, parasite screen at 2 μg/mL, % growth, replicate 2): 86.95%

CC(C)[C@@H]1NC(=O)[C@H](C)OC(=O)[C@@H](C(C)C)NC(=O)[C@@H](C(C)C)OC(=O)[C@H](C(C)C)NC(=O)[C@H](C)OC(=O)[C@@H](C(C)C)NC(=O)[C@@H](C(C)C)OC(=O)[C@H](C(C)C)NC(=O)[C@H](C)OC(=O)[C@@H](C(C)C)NC(=O)[C@@H](C(C)C)OC1=O [Valinomycin]
activity at 2 µg/mL ([1]; 3D7, P. falciparum, 72 h, screen at 2 μg/mL, replicate 1, read-out: Pf_72h_%Growth_Rep1): 81%
activity at 2 µg/mL ([1]; 3D7, P. falciparum, 72 h, screen at 2 μg/mL, replicate 2, read-out: Pf_72h_%Growth_Rep2): 123%
activity at 2 µg/mL ([2]; 3D7, P. falciparum, 120 h, screen at 2 μg/mL, replicate 1, read-out: Pf_120h_%Growth_Rep1): 90.6%
activity at 2 µg/mL ([2]; 3D7, P. falciparum, 120 h, screen at 2 μg/mL, replicate 2, read-out: Pf_120h_%Growth_Rep2): 101%
percent parasite growth at 2 µg/mL ([3]; Toxoplasma gondii; T. gondii, 72 h, screen at 2 μg/mL, replicate 1; read-out: Tg_72h_%Growth_Rep1): 122%
percent parasite growth at 2 µg/mL ([3]; Toxoplasma gondii; T. gondii, 72 h, screen at 2 μg/mL, replicate 2; read-out: Tg_72h_%Growth_Rep2): 85.6%

CCC(C)(C)C(=O)O[C@H]1C[C@@H](C)C=C2C=C[C@H](C)[C@H](CC[C@@H]3C[C@@H](O)CC(=O)O3)[C@H]21 [Simvastatin]
activity at 2 µg/mL [1, 4]: 83.1%
activity at 2 µg/mL [1, 5]: 118%
activity at 2 µg/mL [2, 6]: 83.8%
activity at 2 µg/mL [2, 7]: 70.2%
percent parasite growth at 2 µg/mL [3, 8]: 93.5%
percent parasite growth at 2 µg/mL [3, 9]: 71.4%

Capreomycin sulfate
Pf_72h_%Growth_Rep1 [1, 10]: 82.18%
Pf_72h_%Growth_Rep2 [1, 11]: 86.69%
Pf_120h_%Growth_Rep1 [2, 12]: 94.57%
Pf_120h_%Growth_Rep2 [2, 13]: 87.91%
Tg_72h_%Growth_Rep1 [3, 14]: 114.86%
Tg_72h_%Growth_Rep2 [3, 15]: 91.40%

C/C=C/C=C/C=C/C(=O)N[C@@H](Cc1ccccc1)C(=O)N[C@H]1COC(=O)[C@@H]2CCCN2C(=O)[C@H](C)NC(=O)[C@H](C)N(C)C(=O)[C@@H]2CCCN2C1=O [A 54556B] ({Octatrienoyl(2E,4E,6E)}-FSP[NMeA]AP; ester 2-C)
Pf_72h_%Growth_Rep1 [1, 16]: 78.68%
Pf_72h_%Growth_Rep2 [1, 17]: 74.34%
Pf_120h_%Growth_Rep1 ([2]; library screen at 2 μg/mL, 120 h, % growth, replicate 1): 65.42%
Pf_120h_%Growth_Rep2 ([2]; library screen at 2 μg/mL, 120 h, % growth, replicate 2): 57.54%
Tg_72h_%Growth_Rep1 [3, 16]: 115.90%
Tg_72h_%Growth_Rep2 [3, 17]: 86.45%

Cc1cc(OC(=O)c2c(C)cc(O)cc2O)cc(O)c1C(=O)O [BIA-L1669]
Pf_72h_%Growth_Rep1 ([1]; P. falciparum 3D7, 72 h, library screen at 2 μg/mL, % growth, replicate 1): 74.56%
Pf_72h_%Growth_Rep2 ([1]; P. falciparum 3D7, 72 h, library screen at 2 μg/mL, % growth, replicate 2): 54.17%
Pf_120h_%Growth_Rep1 ([2]; P. falciparum 3D7, 120 h, library screen at 2 μg/mL, % growth, replicate 1): 65.54%
Pf_120h_%Growth_Rep2 ([2]; P. falciparum 3D7, 120 h, library screen at 2 μg/mL, % growth, replicate 2): 115.03%
Tg_72h_%Growth_Rep1 ([3]; T. gondii RH, 72 h, library screen at 2 μg/mL, % growth, replicate 1): 166.09%
Tg_72h_%Growth_Rep2 ([3]; T. gondii RH, 72 h, library screen at 2 μg/mL, % growth, replicate 2): 102.01%

C[C@H]1O[C@@H]2CC(=O)O[C@@H]2C2=C1C(=O)c1c(O)cc3c(c1C2=O)[C@H]1C[C@@H](N(C)C)[C@H](O)[C@]3(C)O1 [Sch 38519]
Pf_72h_%Growth_Rep1 [1, 18]: 54.64%
Pf_72h_%Growth_Rep2 [1, 19]: 23.72%
Pf_120h_%Growth_Rep1 [2, 20]: 51.02%
Pf_120h_%Growth_Rep2 [2, 21]: 51.53%
Tg_72h_%Growth_Rep1 [3, 22]: 50.53%
Tg_72h_%Growth_Rep2 [3, 23]: 29.49%

C/C=C/[C@H]1O[C@@](O)([C@@H](C)[C@H](O)[C@H](C)[C@H]2OC(=O)/C(OC)=C/C(C)=C/[C@@H](C)[C@@H](O)[C@@H](C)[C@@H](O)[C@H](C)C/C(C)=C/C=C/[C@@H]2OC)C[C@@H](O[C@H]2C[C@@H](O)[C@H](OC(N)=O)[C@@H](C)O2)[C@@H]1C [Concanamycin B]
Pf_72h_%Growth_Rep1 [1, 10]: 2.18%
Pf_72h_%Growth_Rep2 [1, 11]: 1.46%
Pf_120h_%Growth_Rep1 [2, 12]: -3.38%
Pf_120h_%Growth_Rep2 [2, 13]: 8.50%
Tg_72h_%Growth_Rep1 [3, 14]: -1.62%
Tg_72h_%Growth_Rep2 [3, 15]: 0.33%

COC(=O)C1=CO[C@@H](C)[C@@H]2CN3CCc4c([nH]c5cc(OC)c(OC)cc45)[C@H]3C[C@H]12 [Reserpiline]
Pf_72h_%Growth_Rep1 [1, 18]: 29.90%
Pf_72h_%Growth_Rep2 [1, 19]: 27.58%
Pf_120h_%Growth_Rep1 [2, 20]: 31.58%
Pf_120h_%Growth_Rep2 [2, 21]: 13.59%
Tg_72h_%Growth_Rep1 [3, 22]: 145.39%
Tg_72h_%Growth_Rep2 [3, 23]: 95.76%

CC(/C=C/C(=O)NO)=C\[C@@H](C)C(=O)c1ccc(N(C)C)cc1 [trichostatin A, reference compound]
activity in the screen against P. falciparum ([1]; 2 μg/mL, 72 h, active = ≥80 % growth inhibition): active
Pf_72h_%Growth_Rep1 [1, 10]: 1.39%
Pf_72h_%Growth_Rep2 [1, 11]: -9.74%
Pf_120h_%Growth_Rep1 [2, 12]: 8.88%
Pf_120h_%Growth_Rep2 [2, 13]: 11.39%
Tg_72h_%Growth_Rep1 [3, 14]: 0.84%
Tg_72h_%Growth_Rep2 [3, 15]: 0.67%

CN[C@H]1C(=O)N[C@@H]2Cc3ccc(cc3)Oc3cc4cc(c3O[C@@H]3O[C@H](C(=O)O)[C@@H](O)[C@H](O)[C@H]3NC(=O)CCCCCCCCC(C)C)Oc3ccc(cc3Cl)[C@@H](O)[C@@H]3NC(=O)[C@H](NC(=O)[C@@H]4NC(=O)[C@@H](NC2=O)c2cc(cc(O)c2Cl)Oc2cc1ccc2O)c1ccc(O)c(c1)-c1c(O[C@H]2O[C@H](CO)[C@@H](O)[C@H](O)[C@@H]2O)cc(O)cc1[C@@H](C(=O)NCCCN(C)C)NC3=O [Dalbavancin]
Pf_72h_%Growth_Rep1 [1, 10]: 84.83%
Pf_72h_%Growth_Rep2 [1, 11]: 84.70%
Pf_120h_%Growth_Rep1 [2, 12]: 61.95%
Pf_120h_%Growth_Rep2 [2, 13]: 91.53%
Tg_72h_%Growth_Rep1 [3, 14]: 148.88%
Tg_72h_%Growth_Rep2 [3, 15]: 101.28%

Source: article PMC12396409, “Screening and hit evaluation of a microbial metabolite library against the pathogenic Plasmodium falciparum and Toxoplasma gondii parasites” (International Journal for Parasitology: Drugs and Drug …, 2025)
